From ChEMBL document CHEMBL4680171, “Oxadiazolylthiazoles as novel and selective antifungal agents” (Eur J Med Chem, 2020)
In brackets after ≈: the same amount, converted by molar mass. Activity calls are given as the source filed them. The rule behind the calls is not given here.

Key:
[1] = Selectivity index, ratio of CC50 for African green monkey Vero cells to MIC for antifungal activity against fluconazole-resistant Candida albicans NR29448; format: toxicity; settings: read-out: Selectivity Index
Cryptococcus neoformans [2] = experiment: Antifungal activity against Cryptococcus neoformans NR48770 assessed as reduction in fungal growth incubated for 48 hrs by CLSI based broth microdilution method; format: functional
Aspergillus fumigatus [3] = experiment: Antifungal activity against Aspergillus fumigatus NR 35303 assessed as reduction in fungal growth incubated for 24 hrs by CLSI based broth microdilution method; format: functional
[Candida] auris [4] = Antifungal activity against fluconazole-resistant Candida auris 384 assessed as reduction in fungal growth incubated for 24 hrs by CLSI based broth microdilution method; format: functional; settings: Candidozyma auris
[5] = Selectivity index, ratio of maximum non-toxic concentration for human Caco-2 cells to MIC for antifungal activity against Candida krusei ATCC 34135; format: toxicity; settings: read-out: Selectivity Index
Aspergillus fumigatus [6] = experiment: Antifungal activity against Aspergillus fumigatus NR 35304 assessed as reduction in fungal growth incubated for 24 hrs by CLSI based broth microdilution method; format: functional
Lactobacillus gasseri = experiment: Antibacterial activity against Lactobacillus gasseri HM-400 assessed as reduction in bacterial growth by CLSI based assay
Staphylococcus aureus = experiment: Antibacterial activity against methicillin resistant Staphylococcus aureus subsp. aureus USA300 assessed as reduction in bacterial growth by CLSI based broth microdilution method; format: functional
[7] = Selectivity index, ratio of maximum non-toxic concentration for human Caco-2 cells to MIC for antifungal activity against fluconazole-resistant Candida albicans NR29448; format: toxicity; settings: read-out: Selectivity Index
Nakaseomyces glabratus [8] = experiment: Antifungal activity against Candida glabrata ATCC MYA-2950 assessed as reduction in fungal growth incubated for 24 hrs by CLSI based broth microdilution method; format: functional
Candida albicans [9] = experiment: Antifungal activity against fluconazole-resistant Candida albicans NR29448 assessed as reduction in fungal growth incubated for 24 hrs by CLSI based broth microdilution method; format: functional
Candida albicans [10] = experiment: Antifungal activity against Candida albicans ATCC 10231 assessed as reduction in fungal growth incubated for 24 hrs by CLSI based broth microdilution method; format: functional
[11] = Selectivity index, ratio of maximum non-toxic concentration for human Caco-2 cells to MIC for antifungal activity against Candida glabrata ATCC MYA-2950; format: toxicity; settings: read-out: Selectivity Index
[12] = system: Cryptococcus gattii species complex; experiment: Antifungal activity against Cryptococcus gattii NR43209 assessed as reduction in fungal growth incubated for 48 hrs by CLSI based broth microdilution method; format: functional, Cryptococcus bacillisporus
Lactobacillus crispatus = experiment: Antibacterial activity against Lactobacillus crispatus HM-370 assessed as reduction in bacterial growth by CLSI based assay
Candida parapsilosis [13] = experiment: Antifungal activity against Candida parapsilosis ATCC 22019 assessed as reduction in fungal growth incubated for 24 hrs by CLSI based broth microdilution method; format: functional; settings: Lodderomyces parapsilosis
[14] = Selectivity index, ratio of CC50 for African green monkey Vero cells to MIC for antifungal activity against Aspergillus fumigatus NR 35303; format: toxicity; settings: read-out: Selectivity Index
[15] = Selectivity index, ratio of maximum non-toxic concentration for human Caco-2 cells to MIC for antifungal activity against fluconazole-resistant Candida auris 381; format: toxicity; settings: read-out: Selectivity Index
[Candida] auris [16] = Antifungal activity against fluconazole-resistant Candida auris 381 assessed as reduction in fungal growth incubated for 24 hrs by CLSI based broth microdilution method; format: functional; settings: Candidozyma auris
[17] = Selectivity index, ratio of maximum non-toxic concentration for human Caco-2 cells to MIC for antifungal activity against fluconazole-resistant Candida auris 384; format: toxicity; settings: read-out: Selectivity Index
[18] = Selectivity index, ratio of CC50 for African green monkey Vero cells to MIC for antifungal activity against Candida krusei ATCC 34135; format: toxicity; settings: read-out: Selectivity Index
[19] = Selectivity index, ratio of CC50 for African green monkey Vero cells to MIC for antifungal activity against fluconazole-resistant Candida auris 381; format: toxicity; settings: read-out: Selectivity Index
[20] = Selectivity index, ratio of CC50 for African green monkey Vero cells to MIC for antifungal activity against Candida parapsilosis ATCC 22019; format: toxicity; settings: read-out: Selectivity Index
[Candida] auris [21] = Antifungal activity against fluconazole-resistant Candida auris 383 assessed as reduction in fungal growth incubated for 24 hrs by CLSI based broth microdilution method; format: functional; settings: Candidozyma auris
[22] = Selectivity index, ratio of CC50 for African green monkey Vero cells to MIC for antifungal activity against fluconazole-resistant Candida auris 383; format: toxicity; settings: read-out: Selectivity Index
Cryptococcus neoformans [23] = experiment: Antifungal activity against Cryptococcus neoformans NR41300 assessed as reduction in fungal growth incubated for 48 hrs by CLSI based broth microdilution method; format: functional
Pichia kudriavzevii = experiment: Antifungal activity against Candida krusei ATCC 34135 assessed as reduction in fungal growth incubated for 24 hrs by CLSI based broth microdilution method; format: functional
Candida albicans [24] = experiment: Antifungal activity against Candida albicans SS5314 assessed as reduction in fungal growth incubated for 24 hrs by CLSI based broth microdilution method; format: functional
[25] = Cytotoxicity against African green monkey Vero cells assessed as reduction in cell viability incubated for 2 hrs by MTS assay; format: cell-based; settings: chlorocebus sabaeus
Candida albicans [26] = experiment: Antibiofilm activity against Candida albicans NR29448 assessed as reduction in biofilm formation at 0.5XMIC incubated for 24 hrs by crystal violet staining based assay relative to control; format: functional
[27] = Selectivity index, ratio of maximum non-toxic concentration for human Caco-2 cells to MIC for antifungal activity against Cryptococcus gattii NR43210; format: toxicity; settings: read-out: Selectivity Index
Nakaseomyces glabratus [28] = experiment: Antifungal activity against Candida glabrata ATCC 66032 assessed as reduction in fungal growth incubated for 24 hrs by CLSI based broth microdilution method; format: functional
[29] = Cytotoxicity against human Caco-2 cells assessed as cell viability up to 64 ug/ml incubated for 24 hrs by MTS assay; format: cell-based; settings: dose <=64 µg/ml, read-out: Activity
[30] = Selectivity index, ratio of CC50 for African green monkey Vero cells to MIC for antifungal activity against Candida albicans ATCC 10231; format: toxicity; settings: read-out: Selectivity Index
[31] = Selectivity index, ratio of maximum non-toxic concentration for human Caco-2 cells to MIC for antifungal activity against Cryptococcus neoformans NR41298; format: toxicity; settings: read-out: Selectivity Index
Cryptococcus neoformans [32] = experiment: Antifungal activity against Cryptococcus neoformans NR41298 assessed as reduction in fungal growth incubated for 48 hrs by CLSI based broth microdilution method; format: functional
Candida parapsilosis [33] = experiment: Antifungal activity against Candida parapsilosis CAB 502638 assessed as reduction in fungal growth incubated for 24 hrs by CLSI based broth microdilution method; format: functional; settings: Lodderomyces parapsilosis
Candida albicans [34] = experiment: Antibiofilm activity against 24 hrs preformed biofilm of Candida albicans NR29448 assessed as disruption of mature biofilm at 64 ug/ml incubated for 24 hrs by crystal violet staining based spectrophotometry relative to control; format: functional; settings: dose 64 µg/ml
Candida albicans [35] = experiment: Fungistatic activity against Candida albicans SS5314 at 5 to 10x MIC measured for 36 hrs by time kill assay; format: functional, organism-based
[36] = Selectivity index, ratio of maximum non-toxic concentration for human Caco-2 cells to MIC for antifungal activity against Candida krusei CAB 396420; format: toxicity; settings: read-out: Selectivity Index
[37] = Selectivity index, ratio of CC50 for African green monkey Vero cells to MIC for antifungal activity against Candida parapsilosis CAB 502638; format: toxicity; settings: read-out: Selectivity Index
Clostridioides difficile = experiment: Antibacterial activity against Clostridium difficile BAA1870 assessed as reduction in bacterial growth by CLSI based broth microdilution method; format: functional
Escherichia coli = experiment: Antibacterial activity against Escherichia coli JW55031 harboring tolC mutation assessed as reduction in bacterial growth by CLSI based broth microdilution method; format: functional

Cc1nc(-c2ccc(C(C)(C)C)cc2)sc1-c1nnc(N[C@@H]2CCCC[C@@H]2N)o1 (relative stereo)
selectivity ratio [1]: ≤ 64 | MIC (Cryptococcus neoformans [2]): 1 µg/mL (≈ 2.43 µM) | MIC (Aspergillus fumigatus [3]): 8 µg/mL (≈ 19.4 µM) | MIC ([Candida] auris [4]): 4 µg/mL (≈ 9.72 µM) | selectivity ratio [5]: ≤ 64 | MIC (Aspergillus fumigatus [6]): 4 µg/mL (≈ 9.72 µM) | MIC (Lactobacillus gasseri): 128 µg/mL (≈ 311 µM) | MIC (Staphylococcus aureus): > 64 µg/mL | selectivity ratio [7]: ≤ 64 | MIC (Nakaseomyces glabratus [8]): 0.125 µg/mL (≈ 0.304 µM) | MIC (Candida albicans [9]): 8 µg/mL (≈ 19.4 µM) | MIC (Candida albicans [10]): 8 µg/mL (≈ 19.4 µM) | selectivity ratio [11]: ≤ 64 | MIC [12]: 1 µg/mL (≈ 2.43 µM) | MIC (Lactobacillus crispatus): > 128 µg/mL | MIC (Candida parapsilosis [13]): 1 µg/mL (≈ 2.43 µM) | selectivity ratio [14]: ≤ 64 | selectivity ratio [15]: ≤ 64 | MIC ([Candida] auris [16]): 4 µg/mL (≈ 9.72 µM) | selectivity ratio [17]: ≤ 64 | selectivity ratio [18]: ≤ 64 | selectivity ratio [19]: ≤ 64 | selectivity ratio [20]: ≤ 64 | MIC ([Candida] auris [21]): 2 µg/mL (≈ 4.86 µM) | selectivity ratio [22]: ≤ 64 | MIC (Cryptococcus neoformans [23]): 2 µg/mL (≈ 4.86 µM) | MIC (Pichia kudriavzevii): 2 µg/mL (≈ 4.86 µM) | MIC (Candida albicans [24]): 2 µg/mL (≈ 4.86 µM) | CC50 at 2 h [25]: > 64 µg/mL | inhibition (INH) (Candida albicans [26]): 40% | selectivity ratio [27]: ≤ 64 | MIC (Nakaseomyces glabratus [28]): 0.5 µg/mL (≈ 1.21 µM) | viability at 24 h [29]: 100% | selectivity ratio [30]: ≤ 64 | selectivity ratio [31]: ≤ 64 | MIC (Cryptococcus neoformans [32]): 2 µg/mL (≈ 4.86 µM) | MIC (Candida parapsilosis [33]): 1 µg/mL (≈ 2.43 µM) | Activity (Candida albicans [34]): 16% | Activity (Candida albicans [35]): Active | selectivity ratio [36]: ≤ 64 | selectivity ratio [37]: ≤ 64 | MIC (Clostridioides difficile): 64 µg/mL (≈ 156 µM) | MIC (Escherichia coli): > 64 µg/mL
